In patent publication US5061794A, “Cephalosporin derivatives, and antibacterial agents” (priority 1986, dated 1991):
Read-outs that look alike come from different tables or passages of the source.

Columns and labels:
Ps. cepacia 23 = assay: in vitro antibacterial activity, agar plate dilution method (MIC); format: cell-based, Pseudomonas cepacia; conditions: read-out: Minimum Inhibitory Concentration (MIC)
Method in brief: (§1)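 Overnight Mueller Hinton broth cultures were inoculated onto Mueller Hinton agar containing serial antibiotic concentrations at 10^6 CFU/ml. Plates were incubated at 37° C. for 16 hours, and MIC (μg/ml) was recorded.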

P. vulgaris HX-19 = assay: as above; format: cell-based; conditions: Proteus vulgaris, HX19, 16 h, P. vulgaris HX-19; 10^6 CFU/ml; read-out: Minimum Inhibitory Concentration (MIC)
Method in brief: as §1

K. oxytoca GN10650 = assay: as above; format: cell-based; conditions: Klebsiella oxytoca, GN10650, 16 h, read-out: Minimum Inhibitory Concentration (MIC), *K. oxytoca GN10650, lactamase-producing strain; 10^6 CFU/ml
Method in brief: as §1

S. aureus 209P NIHJ-JC1 = assay: as above; format: cell-based; conditions: Staphylococcus aureus, 16 h
Method in brief: as §1

S. marcescens IAM 1184 = assay: as above; format: cell-based; conditions: Serratia marcescens, IAM1184, 16 h, read-out: Minimum Inhibitory Concentration (MIC)
Method in brief: as §1

M. morganii GN5407 = assay: as above; format: cell-based; conditions: Morganella morganii, GN5407, 16 h, read-out: Minimum Inhibitory Concentration (MIC), *M. morganii GN5407, lactamase-producing strain; 10^6 CFU/ml
Method in brief: as §1

P. vulgaris No. 33 = assay: as above; format: cell-based; conditions: Proteus vulgaris, 10^6 CFU/ml
Method in brief: as §1

E. cloacae Nek 39 = assay: as above; format: cell-based; conditions: Enterobacter cloacae, NEK39, 16 h, 10^6 CFU/ml
Method in brief: as §1

S. marcescens No. 16-2 = assay: as above; format: cell-based; conditions: Serratia marcescens, NO.162, 16 h
Method in brief: as §1

K. pneumoniae No. 42 = assay: as above; format: cell-based; conditions: Klebsiella pneumoniae, NO.42, 16 h, read-out: Minimum Inhibitory Concentration (MIC), *K. pneumoniae No. 42, lactamase-producing strain; 10^6 CFU/ml
Method in brief: as §1

E. coli NIHJ JC2 = assay: as above; format: cell-based; conditions: Escherichia coli, NIHJJC2, 16 h, read-out: Minimum Inhibitory Concentration (MIC), E. coli NIHJ JC2, 10^6 CFU/ml, 37° C.
Method in brief: as §1

E. cloacae 963 = assay: as above; format: cell-based; conditions: 10^6 CFU/ml
Method in brief: as §1

E. coli GN5482 = assay: as above; format: cell-based; conditions: Escherichia coli, GN5482, 16 h
Method in brief: as §1

K. pneumoniae PCI-602 = assay: as above; format: cell-based; conditions: Klebsiella pneumoniae, PCI602, 16 h, 10^6 CFU/ml
Method in brief: as §1

A. calcoaceticus No. 4 = assay: as above; format: cell-based, Acinetobacter calcoaceticus; conditions: Acinetobacter calcoaceticus, NO.4, 16 h, 10^6 CFU/ml
Method in brief: as §1

E. coli CSH2 (RK1) = assay: microbe, parasite or virus in culture; format: cell-based; conditions: Escherichia coli, 16 h, read-out: Minimum Inhibitory Concentration (MIC), *E. coli CSH2 (RK1), lactamase-producing strain; 10^6 CFU/ml
Method in brief: as §1

E. coli CSH(RE45) = assay: microbe, parasite or virus in culture; format: cell-based; conditions: Escherichia coli, 16 h, read-out: Minimum Inhibitory Concentration (MIC), *E. coli CSH(RE45), lactamase-producing strain; 10^6 CFU/ml
Method in brief: as §1

Ps. aeruginosa AK 109 = assay: in vitro antibacterial activity, agar plate dilution method (MIC); format: cell-based, Pseudomonas aeruginosa; conditions: Pseudomonas aeruginosa, AK109, 16 h, read-out: Minimum Inhibitory Concentration (MIC)
Method in brief: as §1

Ps. aeruginosa AKR17 = assay: as above; format: cell-based, Pseudomonas aeruginosa; conditions: Pseudomonas aeruginosa, 16 h; Ps. aeruginosa AKR17; 10^6 CFU/ml; read-out: Minimum Inhibitory Concentration (MIC)
Method in brief: as §1

Ps. aeruginosa IF03445 = assay: as above; format: cell-based, Pseudomonas aeruginosa; conditions: Pseudomonas aeruginosa, 10^6 CFU/ml
Method in brief: as §1

[1] = *E. cloacae Nek 39, lactamase-producing strain, read-out: Minimum Inhibitory Concentration (MIC)
[2] = *S. marcescens No. 16-2, lactamase-producing strain, 10^6 CFU/ml, read-out: Minimum Inhibitory Concentration (MIC)
[3] = Enterobacter cloacae, 963, 16 h, read-out: Minimum Inhibitory Concentration (MIC), E. cloacae 963
[4] = read-out: Minimum Inhibitory Concentration (MIC), *E. coli GN5482, lactamase-producing strain, 10^6 CFU/ml
[5] = read-out: Minimum Inhibitory Concentration (MIC), K. pneumoniae PCI-602
[6] = A. calcoaceticus No. 4, read-out: Minimum Inhibitory Concentration (MIC)
[7] = Ps. aeruginosa AK 109, 10^6 CFU/ml
[8] = 16 h, Ps. aeruginosa IF03445, read-out: Minimum Inhibitory Concentration (MIC)
[9] = read-out: Minimum Inhibitory Concentration (MIC), S. aureus 209P NIHJ-JC1, 10^6 CFU/ml, 37° C., 16 hours
[10] = NO.33, 16 h, read-out: Minimum Inhibitory Concentration (MIC), *P. vulgaris No. 33, lactamase-producing strain
[11] = read-out: Minimum Inhibitory Concentration (MIC)
[12] = K. pneumoniae PCI-602, read-out: Minimum Inhibitory Concentration (MIC)
[13] = Burkholderia cepacia, 16 h, Ps. cepacia 23, 10^6 CFU/ml
[14] = S. marcescens IAM 1184, 10^6 CFU/ml
[15] = read-out: Minimum Inhibitory Concentration (MIC), *E. cloacae Nek 39, lactamase-producing strain
[16] = read-out: Minimum Inhibitory Concentration (MIC), A. calcoaceticus No. 4
[17] = IF03445, 16 h, read-out: Minimum Inhibitory Concentration (MIC), Ps. aeruginosa IF03445

| SMILES | MIC (Ps. cepacia 23; Burkholderia cepacia, 23, 16 h) [µg/mL] | MIC (P. vulgaris HX-19) [ng/mL] | MIC (K. oxytoca GN10650) [µg/mL] | MIC (S. marcescens IAM 1184) [µg/mL] | MIC (M. morganii GN5407) [µg/mL] | MIC (S. marcescens No. 16-2; [2]) [µg/mL] | MIC (K. pneumoniae No. 42) [µg/mL] | MIC (E. coli NIHJ JC2) [µg/mL] | MIC (E. cloacae 963; [3]) [µg/mL] | MIC (K. pneumoniae PCI-602; [5]) [µg/mL] | MIC (A. calcoaceticus No. 4; [6]) [µg/mL] | MIC (E. coli CSH2 (RK1)) [µg/mL] | MIC (E. coli CSH(RE45)) [µg/mL] | MIC (Ps. aeruginosa AK 109; [7]) [µg/mL] | MIC (Ps. aeruginosa AKR17) [µg/mL] | MIC (Ps. aeruginosa IF03445; [8]) [µg/mL] | MIC (S. aureus 209P NIHJ-JC1; [9]) [µg/mL] | MIC (P. vulgaris No. 33; [10]) [µg/mL] | MIC (E. coli GN5482; [11]) [µg/mL] | MIC (E. cloacae Nek 39; [15]) [µg/mL] | further results |
| --- | --- | --- | --- | --- | --- | --- | --- | --- | --- | --- | --- | --- | --- | --- | --- | --- | --- | --- | --- | --- | --- |
| CC(=O)Oc1ccc(-c2nc(SCC3=C(C(=O)O)N4C(=O)[C@@H](NC(=O)/C(=N\OC(C)(C)C(=O)O)c5csc(N)n5)[C@H]4SC3)sc2CC(=O)O)cc1 [compound 20, trisodium 3-[4-(4-acetoxyphenyl)-5-carboxylatemethylthiazol-2-yl]thiomethyl-7β-[2-(2-aminothiazol-4-yl)-2-(1-carboxylate-1-methylethoxyimino)acetamido]-3-cephem-4-carboxylate, reference compound] | 6.25 | < 6 | 3.12 | 1.56 | 3.12 | 100 | 3.12 | 3.12 | 6.25 | 1.56 | > 100 | 3.12 | 3.12 | 25 | > 100 | 25 |  |  |  |  | MIC (S. aureus 209P NIHJ-JC1; S. aureus 209P NIHJ-JC1, 10^6 CFU/ml, 37° C., 16 hours, read-out: Minimum Inhibitory Concentration (MIC)): 50 µg/mL; MIC (P. vulgaris No. 33; 16 h, *P. vulgaris No. 33, lactamase-producing strain, read-out: Minimum Inhibitory Concentration (MIC)): 0.1 µg/mL; MIC (E. cloacae Nek 39; [1]): 25 µg/mL; MIC (E. coli GN5482; [4]): 6.25 µg/mL |
| CC(C)(O/N=C(\C(=O)N[C@@H]1C(=O)N2C(C(=O)O)=C(CSc3ncc(-c4ccc(O)cc4)o3)CS[C@H]12)c1csc(N)n1)C(=O)O [compound 24, disodium 7β-[2-(2-aminothiazol-4-yl)-2-(1-carboxylate-1-methylethoxyimino)acetamido]-3-[5-(4-hydroxyphenyl)oxazol-2-yl]thiomethyl-3-cephem-4-carboxylate, reference compound] | 6.25 | < 6 | 6.25 | 3.12 | 6.25 | 25 | 12.5 | 12.5 | 12.5 |  | > 100 | 3.12 | 3.12 | 25 | > 100 | 25 | 6.25 | 0.39 | 3.12 |  | MIC (E. cloacae Nek 39; [1]): 25 µg/mL; MIC (K. pneumoniae PCI-602; [12]): 0.2 µg/mL |
| Nc1nc(/C(=N/OCc2ccc(O)c(O)c2)C(=O)N[C@@H]2C(=O)N3C(C(=O)O)=C(CSc4nnc(-c5ccc(O)c(O)c5)o4)CS[C@H]23)cs1 [Ex. 14, sodium 7β-[2-(2-aminothiazol-4-yl)-2-(3,4-dihydroxybenzyloxyimino)acetamido]-3-[5-(3,4-dihydroxyphenyl)-1,3,4-oxadiazol-2-yl]thiomethyl-3-cephem-4-carboxylate] |  | 50 | 6.25 |  | 0.1 | 25 | 0.39 | 0.39 | 0.39 | < 0.006 |  | 0.05 | 3.12 | 100 | > 100 |  | 1.56 | 0.2 | 3.12 | 1.56 | MIC (Ps. cepacia 23; [13]): 0.1 µg/mL; MIC (S. marcescens IAM 1184; [14]): 0.1 µg/mL; MIC (A. calcoaceticus No. 4; [16]): 0.39 µg/mL; MIC (Ps. aeruginosa IF03445; [17]): 12.5 µg/mL |
| CCO/N=C(\C(=O)N[C@@H]1C(=O)N2C(C(=O)O)=C(CSc3nnc(-c4ccc(O)c(O)c4)o3)CS[C@H]12)c1csc(N)n1 [Ex. 5, sodium 7β-[2-(2-aminothiazol-4-yl)-2-ethoxyiminoacetamido]-3-[5-(3,4-dihydroxyphenyl)-1,3,4-oxadiazol-2-yl]thiomethyl-3-cephem-4-carboxylate] |  | < 6 | 0.78 | 0.0125 | 0.025 |  | 0.05 | 0.05 | 0.0125 | < 0.006 |  | 0.0125 | 0.0125 |  | > 100 |  | 0.78 | 0.025 | 0.39 | 0.1 | MIC (Ps. cepacia 23; [13]): < 0.006 µg/mL; MIC (S. marcescens No. 16-2; read-out: Minimum Inhibitory Concentration (MIC), *S. marcescens No. 16-2, lactamase-producing strain, 10^6 CFU/ml): 0.78 µg/mL; MIC (A. calcoaceticus No. 4; [16]): 0.1 µg/mL; MIC (Ps. aeruginosa AK 109): 0.39 µg/mL; MIC (Ps. aeruginosa IF03445; [17]): 0.39 µg/mL |
| CC(C)(O/N=C(\C(=O)N[C@@H]1C(=O)N2C(C(=O)O)=C(CSc3nc(-c4ccc(O)cc4)cs3)CS[C@H]12)c1csc(N)n1)C(=O)O [compound 12, disodium 7β-[2-(2-aminothiazol-4-yl)-2-(1-carboxylate-1-methylethoxyimino)acetamido]-3-[4-(4-hydroxyphenyl)thiazol-2-yl]thiomethyl-3-cephem-4-carboxylate, reference compound] | 3.12 | < 6 | 1.56 | 0.78 | 1.56 |  | 3.12 | 3.12 | 3.12 |  | 100 | 1.56 | 1.56 | 25 | > 100 | 50 |  | 0.39 |  | 12.5 | MIC (S. aureus 209P NIHJ-JC1; [11]): 3.12 µg/mL; MIC (S. marcescens No. 16-2; [11]): 12.5 µg/mL; MIC (E. coli GN5482; [4]): 1.56 µg/mL; MIC (K. pneumoniae PCI-602; [12]): 0.05 µg/mL |
| Nc1nc(/C(=N/OCc2ccccc2)C(=O)N[C@@H]2C(=O)N3C(C(=O)O)=C(CSc4nnc(-c5ccc(O)c(O)c5)o4)CS[C@H]23)cs1 [Ex. 13, sodium 7β-[2-(2-aminothiazol-4-yl)-2-benzyloxyiminoacetamido]-3-[5-(3,4-dihydroxyphenvl)-1,3,4-oxadiazol-2-yl]thiomethyl-3-cephem-4-carboxylate] |  | < 6 | 0.39 |  | 0.025 |  | 0.05 | 0.1 |  | < 0.006 | 0.2 | < 0.006 | 1.56 |  | 50 |  |  | 0.025 | 0.39 | 0.1 | MIC (Ps. cepacia 23; [13]): 0.025 µg/mL; MIC (S. aureus 209P NIHJ-JC1; [11]): 0.39 µg/mL; MIC (S. marcescens IAM 1184; [14]): 0.0125 µg/mL; MIC (S. marcescens No. 16-2; [11]): 3.12 µg/mL; MIC (E. cloacae 963; Enterobacter cloacae, 16 h, E. cloacae 963, read-out: Minimum Inhibitory Concentration (MIC)): 0.0125 µg/mL; MIC (Ps. aeruginosa AK 109): 0.39 µg/mL; MIC (Ps. aeruginosa IF03445; [17]): 0.39 µg/mL |
